Measurements taken from patent US10472341B2, “Bicyclic tetrahydrothiazepine derivatives useful for the treatment of neoplastic and/or infectious diseases” (APEIRON BIOLOGICS AG, priority 2015, dated 2019).

Columns and labels:
[1] = system: aCD3/aCD28-stimulated human CD4+-T-cells; experiment: IL-2 production and activation markers in aCD3/aCD28 stimulated isolated human CD4+-T-cells; type: cell-based; settings: IL-2 production at 3 μM compound
Method in brief: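 CD4+ T cells isolated from buffy-coat PBMCs by microbeads were plated in Xvivo medium (1.5*10^5 cells/well) and stimulated with anti-CD3/28 mAbs plus compound. IL-2 measured by ELISA in supernatants at 24 h or 48 h; CD25 and proliferation by flow cytometry, CD69 at 24 h. Activity classes based on IL-2 at 3 μM compound.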

[2] = system: immune cells & anti-GD2-antibodies bound on M21 melanoma cells; experiment: Immune cells stimulated by anti-GD2-antibody bound on M21 melanoma cells: TNF-alpha, activated NK cells; type: cell-based, human
Experimental: Isolated PBMCs, NK cells or CD8 positive cells were plated in Xvivo medium at 1.5*10^5 cells per in 96 well culture plates in the presence of 0.3*10^4 tumor cells where indicated. Cytokine secretion was determined by ELISA, immune cell activation (using Beckman-Coulter Abs CD25-PC5, CD69-PC7), cell viability and numbers by flow cytometry (Beckman-Coulter FC500 or Gallios) using 7-AAD exclusion as criterion for living cells. […] Antibodies that are bound to pathogens or pathogen-infected cells trigger activation of immune cells via Fc-receptors, that are expressed particularly on NK cells and myeloid cells. This mechanism is also utilized for cancer therapies when therapeutic antibodies against antigens which are preferentially expressed on cancer cells are administrated to patients which in turn recruit and activate immune cells to directly attack cancer cells. The GD2-antigen is strongly expressed on cancer cells of particular origins (among neuroblastoma and melanoma) and is therefore developed clinically as anti-cancer therapy. For M21 melanoma cells, GD2 is the only antigen that has been characterized to be accessible as tumor antigen. Therefore, an anti-GD2-antibody that was available in clinically grade quality was employed to test whether compounds can enhance the Fc-receptor mediated activation of immune cells to tumor-cell bound therapeutic antibodies.

non-stimulated PBMCs = experiment: Non-stimulated PBMCs: cytokine secretion and signs of T-cell activation; type: cell-based, human
Source text: This is an important finding for compounds that shall selectively act on T cells which have been activated by presence of antigen from pathogens or tumors, but shall not lead to an unwanted general activation of all T cells of a patient.

[3] = system: PBMCs & tumor cell lines (K562, Panc1, BxPc3, HT-29, A549, HTB46, HTB47, A375, M21, SKBR3, CRL2505); experiment: PBMCs alone or in co-culture with tumor cells of diverse origin: cytokines and granzyme; type: cell-based, human; settings: for Granzyme / IFN-gamma / IL-2: 3 μM
Experimental: Isolated PBMCs, NK cells or CD8 positive cells were plated in Xvivo medium at 1.5*10^5 cells per in 96 well culture plates in the presence of 0.3*10^4 tumor cells where indicated. Cytokine secretion was determined by ELISA, immune cell activation (using Beckman-Coulter Abs CD25-PC5, CD69-PC7), cell viability and numbers by flow cytometry (Beckman-Coulter FC500 or Gallios) using 7-AAD exclusion as criterion for living cells. The tumor cell lines M21 and K562 represent two widely used tumor lines of melanoma and leukemia origin, respectively. However, tumor cells are known to employ different mechanisms to suppress immune functions, therefore it was investigated if the effects of compounds on immune cell activities against tumor cells can be generalized to a wide array of tumor cells of very diverse origins from different types of tumors. PBMCs were isolated and incubated with and without compounds, either alone or in co-culture with different tumor cells.

[4] = PBMC & M21 tumor cells & anti-GD2 Ab high concentration, 0.3 μM
[5] = PBMC & M21 tumor cells & anti-GD2 Ab high concentration, 1 μM
[6] = PBMC & M21 tumor cells & anti-GD2 Ab high concentration, 3 μM
[7] = PBMC & M21 tumor cells & anti-GD2 Ab high concentration, 10 μM
[8] = PBMC & M21 tumor cells & anti-GD2 Ab low concentration, 0.3 μM
[9] = PBMC & M21 tumor cells & anti-GD2 Ab low concentration, 1 μM
[10] = PBMC & M21 tumor cells & anti-GD2 Ab low concentration, 3 μM
[11] = PBMC & M21 tumor cells & anti-GD2 Ab low concentration, 10 μM
[12] = PBMC & M21 tumor cells only, 0.3 μM
[13] = PBMC & M21 tumor cells only, 1 μM
[14] = PBMC & M21 tumor cells only, 3 μM
[15] = PBMC & M21 tumor cells only, 10 μM

In the case of `Cl.N[C@H]1CSc2cc(F)c(C(=O)NCCCC(F)(F)F)cc2N(Cc2ccc(Cl)cc2)C1=O` [Example 40, (3R)-3-amino-5-[(4-chlorophenyl)methyl]-8-fluoro-4-oxo-N-(4,4,4-trifluorobutyl)-2,3,4,5-tetrahydro-1,5-benzothiazepine-7-carboxamide hydrochloride], the “Activity Class CD4+” value [1] is reported as “B (IL-2 production at 3 μM compound concentration between 2-10 ng/mL)”, the TNF-alpha [2, 4] is reported as 106.30 pg/mL and the “strongly activated NK cells” value [2, 4] is reported as 23.55 % CD25+CD69+. For the same compound, the TNF-alpha [2, 5] was 142.98 pg/mL, the “strongly activated NK cells” value [2, 5] was 32.63 % CD25+CD69+ and the TNF-alpha [2, 6] was 192.34 pg/mL. The “strongly activated NK cells” value [2, 6] was 42.50 % CD25+CD69+, the TNF-alpha [2, 7] was 257.96 pg/mL and the “strongly activated NK cells” value [2, 7] was 42.22 % CD25+CD69+. The TNF-alpha [2, 8] was 36.53 pg/mL, the “strongly activated NK cells” value [2, 8] was 6.92 % CD25+CD69+ and the TNF-alpha [2, 9] was 55.72 pg/mL. For the same compound, the “strongly activated NK cells” value [2, 9] was 11.88 % CD25+CD69+, the TNF-alpha [2, 10] was 93.25 pg/mL and the “strongly activated NK cells” value [2, 10] was 17.22 % CD25+CD69+. The TNF-alpha [2, 11] was 114.88 pg/mL, the “strongly activated NK cells” value [2, 11] was 20.25 % CD25+CD69+ and the TNF-alpha [2, 12] was 17.47 pg/mL. The “strongly activated NK cells” value [2, 12] was 0.75 % CD25+CD69+, the TNF-alpha [2, 13] was 17.59 pg/mL and the “strongly activated NK cells” value [2, 13] was 1.10 % CD25+CD69+. For the same compound, the TNF-alpha [2, 14] was 28.95 pg/mL, the “strongly activated NK cells” value [2, 14] was 2.40 % CD25+CD69+ and the TNF-alpha [2, 15] was 38.00 pg/mL. For the same compound, the “strongly activated NK cells” value [2, 15] was 2.19 % CD25+CD69+, the “reactivity of immune cells to anti-GD2-antibodies bound on M21 melanoma cells” value ([2]; cytokine secretion, NK cell activation) was “enhanced reactivity of immune cells to anti-GD2-antibodies bound on M21 melanoma cells, resulting in increased secretion of cytokine and activation of NK cells” and the “cytokine secretion or other signs of T-cell activation” value (non-stimulated PBMCs) was “did not enhance cytokine secretion or other signs of T-cell activation”. The Granzyme ([3]; PBMC & A375) was 0.053 ng/mL, the IFN-gamma ([3]; PBMC & A375) was 0.142 ng/mL and the IL-2 ([3]; PBMC & A375) was 0.278 ng/mL. For the same compound, the Granzyme ([3]; PBMC & A549) was 0.020 ng/mL, the IFN-gamma ([3]; PBMC & A549) was 0.214 ng/mL and the IL-2 ([3]; PBMC & A549) was 0.018 ng/mL. It also gave a Granzyme ([3]; PBMC & BxPc3) of 0.008 ng/mL, an IFN-gamma ([3]; PBMC & BxPc3) of 0.088 ng/mL and an IL-2 ([3]; PBMC & BxPc3) of 0.092 ng/mL. It also gave a Granzyme ([3]; PBMC & CRL2505) of 0.780 ng/mL, an IFN-gamma ([3]; PBMC & CRL2505) of 0.663 ng/mL and an IL-2 ([3]; PBMC & CRL2505) of 0.012 ng/mL. For the same compound, the Granzyme ([3]; PBMC & HT-29) was 0.003 ng/mL, the IFN-gamma ([3]; PBMC & HT-29) was 0.022 ng/mL and the IL-2 ([3]; PBMC & HT-29) was 0.033 ng/mL. The Granzyme ([3]; PBMC & HTB46) was 0.404 ng/mL, the IFN-gamma ([3]; PBMC & HTB46) was 0.665 ng/mL and the IL-2 ([3]; PBMC & HTB46) was 0.168 ng/mL. The Granzyme ([3]; PBMC & HTB47) was 0.072 ng/mL, the IFN-gamma ([3]; PBMC & HTB47) was 0.277 ng/mL and the IL-2 ([3]; PBMC & HTB47) was 0.075 ng/mL. For the same compound, the Granzyme ([3]; PBMC & K562) was 0.011 ng/mL, the IFN-gamma ([3]; PBMC & K562) was 0.000 ng/mL and the IL-2 ([3]; PBMC & K562) was 0.000 ng/mL. It also gave a Granzyme ([3]; PBMC & M21) of 0.001 ng/mL, an IFN-gamma ([3]; PBMC & M21) of 0.000 ng/mL and an IL-2 ([3]; PBMC & M21) of 0.037 ng/mL. The Granzyme ([3]; PBMC & Panc1) was 0.005 ng/mL, the IFN-gamma ([3]; PBMC & Panc1) was 0.000 ng/mL and the IL-2 ([3]; PBMC & Panc1) was 0.013 ng/mL. The Granzyme ([3]; PBMC & SKBR3) was 0.001 ng/mL, the IFN-gamma ([3]; PBMC & SKBR3) was 0.000 ng/mL and the IL-2 ([3]; PBMC & SKBR3) was 0.005 ng/mL. The Granzyme ([3]; PBMC only) was 0.001 ng/mL, the IFN-gamma ([3]; PBMC only) was 0.000 ng/mL and the IL-2 ([3]; PBMC only) was 0.000 ng/mL. The “secretion of cytokines (IL-2, IFN-gamma) and granzyme” value ([3]; PBMCs in co-culture with diverse tumor cell lines) was “enhanced secretion of cytokines and granzyme strongly specifically upon tumor cell contact in diverse tumor cell lines” and the “enhancement of cytokine and granzyme secretion” value ([3]; PBMCs in the absence of tumor cells) was “such effect was not detected in the absence of tumor cells”.
